B1: human mitochondrial pyruvate carrier 1 (hMPC-1), C-terminally tagged (natural protein, UniProt Q9Y5U8 1-109, looked up)
chain: MAGALVRKAADYVRSKDFRDYLMSTHFWGPVANWGLPIAAINDMKKSPEIISGRMTFALCCYSLTFMRFAYKVQPRNWLLFACHATNEVAQLIQGGRLIKHEMTKTASA
notes: human mitochondrial pyruvate carrier 1 (hMPC-1); Printed mass of His-hMPC-1: 15.9 kDa; also called His-hMPC-1; human MPC-1; source: Sf9 (baculovirus), purified in DDM (TALON IMAC, gel filtration); also co-expressed with hMPC-2 in Sf9 by co-infection; not shown: FLAG, C-terminal, kept; 10x His, C-terminal, kept

Legend:
hMPC-1 = molecular target: T1, hMPC-1 (Homo sapiens, UniProt Q9Y5U8); test: Fluorescence quenching binding assay, purified hMPC-1 homo-complex; conditions: hMPC-1 in DDM micelles, room temperature, fluorescence at 338 nm, n = 3; read-out: Dissociation constant (Kd)
T1 construct: HA tag (hemagglutinin, […]) (N); made in house; host or cells: Sf9 (Spodoptera frugiperda), baculovirus
T1 sequence (Q9Y5U8 1-109): B1 chain
Experimental: (§1) In vitro fluorescence quenching was performed to measure the binding affinity of the purified hMPCs to their ligands, such as the pyruvate substrate and inhibitors, to validate their function (Figure 4). First, the equilibrium dissociation constants (Kd) of the hMPCs to pyruvate substrates were measured (Figure 4A,D).
(§2) A fluorescence analysis was performed using a LS55 spectrofluorophotometer at room temperature (Perkin Elmer, Waltham, MA, USA). The protein sample was prepared in buffer containing 50 mM Tris-HCl, 300 mM NaCl, and 0.05% DDM with a final concentration of 0.07 mg/ mL. […] Pyruvate was titrated to hMPC-1, hMPC-2, and hMPC-1/hMPC-2 up to 200mM concentrations. In the case of […], it was titrated to hMPC-1, hMPC-2, and hMPC-1/hMPC-2 up to 300uM, 200uM, 200uM concentrations, respectively. Pioglitazone was titrated to hMPC-1, hMPC-2, and hMPC-1/hMPC-2 up to 400uM, 500uM, and 400uM concentrations, respectively. All data were collected in the wavelength range of 270–450 nm (shown from 300 nm to 450 nm only) with a 1-min delay for each titration point. The dissociation constants were calculated by the maximum intensities in the 338 nm wavelength of each spectrum.

hMPC-2 = molecular target: T2, hMPC-2 (Homo sapiens, UniProt O95563); test: Fluorescence quenching binding assay, purified hMPC-2 homo-complex; conditions: hMPC-2 in DDM micelles, room temperature, fluorescence at 338 nm, n = 3; read-out: Dissociation constant (Kd)
T2 construct: HA tag (hemagglutinin, […]) (N, cleaved yes); 10x His tag (N, cleaved yes); made in house; host or cells: Sf9 (Spodoptera frugiperda), baculovirus
T2 sequence (O95563 1-127): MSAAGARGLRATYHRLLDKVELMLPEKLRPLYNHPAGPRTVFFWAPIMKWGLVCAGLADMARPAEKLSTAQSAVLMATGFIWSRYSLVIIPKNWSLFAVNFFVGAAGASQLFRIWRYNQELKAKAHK
Experimental: as §1, §2

hMPC-1/hMPC-2 = molecular target: T3, hMPC-1/hMPC-2 (Homo sapiens, UniProt O95563+Q9Y5U8); test: Fluorescence quenching binding assay, purified hMPC-1/hMPC-2 hetero-complex; conditions: for Kd: hMPC-1/hMPC-2 in DDM micelles, room temperature, fluorescence at 338 nm, n = 3, read-out: Dissociation constant (Kd)
T3 construct: HA tag (hemagglutinin, […]) (N); HA tag (hemagglutinin, […]) (N, cleaved yes); 10x His tag (N, cleaved yes); made in house; host or cells: Sf9 (Spodoptera frugiperda), baculovirus; proteins purified singly, mixed 1:1, then FLAG-resin
T3 sequence (Q9Y5U8 1-109): B1 chain
T3 sequence (O95563 1-127): T2 sequence (O95563 1-127)
Experimental: as §1, §2

[1] = molecular target: the molecule itself; test: SEC; analytical SEC, HiLoad 16/600 Superdex 200 pg, 50 mM Tris-HCl (pH 7), 300 mM NaCl, 0.05% (w/v) DDM, 1 mL/min; proteins run alone or mixed 1:1 (mass ratio) at room temperature for 1 h; fractions on SDS-PAGE

Molecule	Kd (hMPC-1) [mM]	Kd (hMPC-2) [mM]	Kd (hMPC-1/hMPC-2) [mM]	Binding affinity of hetero-complex relative to homo-complex (hMPC-1/hMPC-2; hMPC-1/hMPC-2 hetero-complex higher than homo-complex) [fold]	binding result [1]
CCc1ccc(CCOc2ccc(CC3SC(=O)NC3=O)cc2)nc1 (centres unmarked) [Pioglitazone]	0.0841 ± 0.0103	0.0993 ± 0.0145	0.0603 ± 0.00611		
CC(=O)C(=O)O [Pyruvate]	12 ± 0.77	12.9 ± 0.9	8.91 ± 1.09	1.5	
B1					binds
